Counter-ions that a name gives are not always drawn.
Tests used:
writhing behavior = assay: Analgesic action by a writhing method using acetic acid; assay type: in vivo, Male mice of a ddY strain; conditions: sc; statistically minimum effective dose; 0.6% acetic acid ip 15 minutes after the drug, writhing counted for ten minutes; mice
5HT1A = biological target: T1, 5HT1A (Homo sapiens, UniProt P08908); assay: Serotonin (5HT) receptor binding action (RBA; in vitro), 5HT1A; conditions: method of JP98/01481 or JP-A 10-281752
T1 sequence (P08908 1-422): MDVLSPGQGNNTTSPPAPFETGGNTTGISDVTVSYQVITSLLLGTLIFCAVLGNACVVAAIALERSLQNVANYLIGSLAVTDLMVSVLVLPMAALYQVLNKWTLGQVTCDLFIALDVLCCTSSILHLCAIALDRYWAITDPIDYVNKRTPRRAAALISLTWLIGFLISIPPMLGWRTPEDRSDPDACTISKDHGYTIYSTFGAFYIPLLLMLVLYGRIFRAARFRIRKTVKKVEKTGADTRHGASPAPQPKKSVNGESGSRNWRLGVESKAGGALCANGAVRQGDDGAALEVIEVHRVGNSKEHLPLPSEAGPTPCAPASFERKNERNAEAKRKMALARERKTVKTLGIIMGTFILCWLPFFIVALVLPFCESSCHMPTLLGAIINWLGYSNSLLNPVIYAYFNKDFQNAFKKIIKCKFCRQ

5HT2 = 5HT2 (Homo sapiens, UniProt P28223); assay: Serotonin (5HT) receptor binding action (RBA; in vitro), 5HT2; conditions: method of JP98/01481 or JP-A 10-281752
Sequence of 5HT2 (P28223 whole entry, species assumed): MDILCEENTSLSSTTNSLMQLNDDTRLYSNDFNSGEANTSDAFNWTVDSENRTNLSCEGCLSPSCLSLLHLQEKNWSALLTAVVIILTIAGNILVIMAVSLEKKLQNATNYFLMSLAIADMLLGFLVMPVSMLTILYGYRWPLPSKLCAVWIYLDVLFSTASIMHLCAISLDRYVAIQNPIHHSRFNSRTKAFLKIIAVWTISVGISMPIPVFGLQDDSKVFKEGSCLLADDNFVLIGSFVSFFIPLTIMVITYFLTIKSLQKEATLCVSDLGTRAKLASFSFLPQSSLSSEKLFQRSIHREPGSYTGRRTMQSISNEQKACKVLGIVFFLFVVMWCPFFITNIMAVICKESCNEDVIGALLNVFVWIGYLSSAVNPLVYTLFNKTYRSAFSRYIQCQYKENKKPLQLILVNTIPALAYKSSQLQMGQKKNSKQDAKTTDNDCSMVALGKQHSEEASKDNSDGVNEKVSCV

[1] = Muscle relaxing action (in vivo); conditions: method of JP98/01481 or JP-A 10-281752
Source text: There are also shown a serotonin (5HT) receptor binding action (RBA; in vitro) and a muscle relaxing action (in vivo) measured according to a method described in JP98/01481 or JP-A 10-281752. (In the table, "n.t." means "not tested").

**Q.** Which results are given for `CC(=O)NCc1ccc2ccn(C3CCN(CCc4ccccc4F)CC3)c2c1` [(4), 1-[1-(2-fluorophenethyl)piperidin-4-yl]-6-(N-acetylaminomethyl)indole]?
**A.** Analgesic Action (minimum effective dose) (writhing behavior): 3 mg/kg; Ki (5HT1A): 1.58 nM; Ki (5HT2): 0.75 nM; Muscle-Relaxing Action (po) [1]: 10 mg/kg

**Q.** With `CC(C)(O)COc1ccc(-c2cc3sccc3c(N3CCN(CCO)CC3)n2)cc1.Cl` [(27), 4-(4-hydroxyethylpiperazin-1-yl)-6-[4-(2-hydroxy-2-methylpropoxy)phenyl]thieno[3,2-c]pyridine hydrochloride] as the compound, how does the “Analgesic Action (minimum effective dose)” value (from here on “Analgesic Action”) (writhing behavior) read?
**A.** 1 mg/kg

**Q.** What about the Ki (5HT1A) of the same compound?
**A.** 1530 nM

**Q.** And the Ki (5HT2)?
**A.** 0.35 nM

**Q.** For `CCCS(=O)(=O)NCc1ccc(-c2cc3ccccc3c(N3CCN(CC)CC3)n2)cc1Cl.Cl` [(23), 1-(4-ethylpiperazin-1-yl)-3-(3-chloro-4-propylsulfonylaminomethylphenyl)isoquinoline hydrochloride], which “Analgesic Action” value (writhing behavior) is on record?
**A.** 3 mg/kg

**Q.** And the Ki (5HT1A)?
**A.** 0.9 nM

**Q.** What about the Ki (5HT2) of the same compound?
**A.** 0.7 nM

**Q.** What about the “Muscle-Relaxing Action (po)” value [1] of the same compound?
**A.** > 30 mg/kg

**Q.** With `CCN1CCN(c2nc(-c3ccc(CCC(C)(C)O)c(F)c3)cc3ccccc23)CC1.Cl` [(19), 1-(4-ethylpiperazin-1-yl)-3-[3-fluoro-4-(3-hydroxy-3-methylbutyl)phenyl]isoquinoline hydrochloride] as the compound, how does the “Analgesic Action” value (writhing behavior) read?
**A.** 1 mg/kg

**Q.** And the Ki (5HT1A)?
**A.** 31.2 nM

**Q.** What about the Ki (5HT2) of the same compound?
**A.** 0.7 nM

**Q.** And the “Muscle-Relaxing Action (ip)” value [1]?
**A.** < 10 mg/kg

**Q.** What about the “Muscle-Relaxing Action (po)” value [1] of the same compound?
**A.** 3 mg/kg

**Q.** For `CN(C)C(=O)Cc1ccc2ccn(C3CCN(CCc4ccc(F)cc4)CC3)c2c1` [(7), 1-[1-(4-fluorophenethyl)piperidin-4-yl]-6-(N,N-dimethylamidemethyl)indole oxalate], which “Analgesic Action” value (writhing behavior) is on record?
**A.** > 10 mg/kg

**Q.** Which “Analgesic Action” value (writhing behavior) does the source give for `COc1ccc(CCN2CCC(n3ccc4ccc(CNC(C)=O)cc43)CC2)cc1` [(3), 1-[1-(4-methoxyphenethyl)piperidin-4-yl]-6-(N-acetylaminomethyl)indole] here?
**A.** 10 mg/kg

**Q.** What about the Ki (5HT1A) of the same compound?
**A.** 0.27 nM

**Q.** And the Ki (5HT2)?
**A.** > 20 nM

**Q.** Which results are given for `CCN1CCN(c2nc(-c3ccc(OCC(C)O)cc3)cc3sccc23)CC1.Cl` (centres unmarked) [(24), 4-(4-ethylpiperazin-1-yl)-6-[4-(2-hydroxypropoxy)phenyl]thieno[3,2-c]pyridine hydrochloride]?
**A.** Analgesic Action (minimum effective dose) (writhing behavior): 1 mg/kg; Ki (5HT1A): 27.9 nM; Ki (5HT2): 0.9 nM; Muscle-Relaxing Action (ip) [1]: 1 mg/kg; Muscle-Relaxing Action (po) [1]: 3 mg/kg

**Q.** For `CNC(=O)Cc1ccc2ccn(C3CCN(CCc4ccc(F)cc4)CC3)c2c1` [(9), 1-[1-(4-fluorophenethyl)piperidin-4-yl]-6-(N-methylamidemethyl)indole], which “Analgesic Action” value (writhing behavior) is on record?
**A.** 1 mg/kg

**Q.** What about the “Muscle-Relaxing Action (ip)” value [1] of the same compound?
**A.** 0.3 mg/kg

**Q.** And the “Muscle-Relaxing Action (po)” value [1]?
**A.** 3 mg/kg

**Q.** Which results are given for `CCN1CCN(c2nc(-c3ccc(C(C)O)cc3)cc3sccc23)CC1.O=C(O)C(=O)O` (centres unmarked) [(26), 4-(4-ethylpiperazin-1-yl)-6-[4-(1-hydroxyethyl)phenyl]thieno[3,2-c]pyridine oxalate]?
**A.** Analgesic Action (minimum effective dose) (writhing behavior): 1 mg/kg; Ki (5HT1A): 15 nM; Ki (5HT2): 16.9 nM; Muscle-Relaxing Action (po) [1]: < 3 mg/kg

**Q.** For `COc1ccccc1N1CCN(CCN(C(=O)C2CCCCC2)c2ccccn2)CC1` [WAY-100,635, reference compound], which “Analgesic Action” value (writhing behavior) is on record?
**A.** 3 mg/kg

**Q.** What about the Ki (5HT2) of the same compound?
**A.** > 200 nM

**Q.** What about the “Muscle-Relaxing Action (ip)” value [1] of the same compound?
**A.** > 10 mg/kg

**Q.** For `CC(=O)NCc1ccc2ccn(C3CCN(CCc4ccc(F)cc4)CC3)c2c1` [(1), 1-[1-(4-Fluorophenethyl)piperidin-4-yl]-6-(N-acetylaminomethyl)indole], which “Analgesic Action” value (writhing behavior) is on record?
**A.** 0.3 mg/kg

**Q.** And the Ki (5HT1A)?
**A.** 0.51 nM

**Q.** And the Ki (5HT2)?
**A.** 1.38 nM

**Q.** And the “Muscle-Relaxing Action (ip)” value [1]?
**A.** 0.3 mg/kg

**Q.** And the “Muscle-Relaxing Action (po)” value [1]?
**A.** 1 mg/kg

**Q.** Which “Analgesic Action” value (writhing behavior) does the source give for `O=C(Cc1ccc2ccn(C3CCN(CCc4ccccc4F)CC3)c2c1)NCCO` [(12), 1-[1-(2-fluorophenethyl)piperidin-4-yl]-6-(N-hydroxyethylamidemethyl)indole] here?
**A.** 10 mg/kg

**Q.** And the “Muscle-Relaxing Action (po)” value [1]?
**A.** > 10 mg/kg

**Q.** Which “Analgesic Action” value (writhing behavior) does the source give for `CCN1CCN(c2nc(-c3ccc(OCCO)cc3)cc3ccccc23)CC1` [(16), 1-(4-ethylpiperazin-1-yl)-3-(4-hydroxyethoxyphenyl)isoquinoline] here?
**A.** 1 mg/kg

**Q.** And the Ki (5HT1A)?
**A.** 31.5 nM

**Q.** And the Ki (5HT2)?
**A.** 4.2 nM

**Q.** What about the “Muscle-Relaxing Action (ip)” value [1] of the same compound?
**A.** 1 mg/kg

**Q.** What about the “Muscle-Relaxing Action (po)” value [1] of the same compound?
**A.** 3 mg/kg

**Q.** For `CCC(O)c1ccc(-c2cc3ccccc3c(N3CCN(CC)CC3)n2)cc1` (centres unmarked) [(17), 1-(4-ethylpiperazin-1-yl)-3-[4-(1-hydroxypropyl)phenyl]isoquinoline], which “Analgesic Action” value (writhing behavior) is on record?
**A.** 1 mg/kg

**Q.** And the Ki (5HT1A)?
**A.** 6.9 nM

**Q.** And the Ki (5HT2)?
**A.** 1.6 nM

**Q.** And the “Muscle-Relaxing Action (ip)” value [1]?
**A.** 1 mg/kg

**Q.** What about the “Muscle-Relaxing Action (po)” value [1] of the same compound?
**A.** 10 mg/kg

**Q.** Which results are given for `O=C(Cc1ccc2ccn(C3CCN(CCc4ccc(F)cc4)CC3)c2c1)NCCO` [(6), 1-[1-(4-fluorophenethyl)piperidin-4-yl]-6-(N-hydroxyethylamidemethyl)indole]?
**A.** Analgesic Action (minimum effective dose) (writhing behavior): > 10 mg/kg; Muscle-Relaxing Action (po) [1]: 10 mg/kg

**Q.** What does the source list for `COc1cccc(C(O)C2CCN(CCc3ccc(F)cc3)CC2)c1OC` (centres unmarked) [MDL-100,907, reference compound]?
**A.** Analgesic Action (minimum effective dose) (writhing behavior): 3 mg/kg; Muscle-Relaxing Action (ip) [1]: 0.3 mg/kg; Muscle-Relaxing Action (po) [1]: 1 mg/kg

**Q.** What does the source list for `NC(=O)Cc1ccc2ccn(C3CCN(CCc4ccccc4F)CC3)c2c1` [(13), 1-[1-(2-fluorophenethyl)piperidin-4-yl]-6-amidemethylindole]?
**A.** Analgesic Action (minimum effective dose) (writhing behavior): 3 mg/kg; Ki (5HT1A): 0.59 nM; Ki (5HT2): 2.81 nM; Muscle-Relaxing Action (ip) [1]: 1 mg/kg; Muscle-Relaxing Action (po) [1]: 3 mg/kg

**Q.** With `CCCNC(=O)c1ccc(-c2cc3ccccc3c(N3CCN(CC)CC3)n2)cc1` [(18), 1-(4-ethylpiperazin-1-yl) -3-[4-(N-propylamide)phenyl]isoquinoline hydrochloride] as the compound, how does the “Analgesic Action” value (writhing behavior) read?
**A.** 1 mg/kg

**Q.** What about the Ki (5HT1A) of the same compound?
**A.** 14.6 nM

**Q.** What about the Ki (5HT2) of the same compound?
**A.** 1.1 nM

**Q.** What about the “Muscle-Relaxing Action (ip)” value [1] of the same compound?
**A.** > 10 mg/kg

**Q.** What about the “Muscle-Relaxing Action (po)” value [1] of the same compound?
**A.** 3 mg/kg

**Q.** Which results are given for `CN1CC[C@]23c4c5ccc(O)c4O[C@H]2[C@@H](O)C=C[C@H]3[C@H]1C5.Cl` [Morphine Hydrochloride, morphine hydrochloride, reference compound]?
**A.** Analgesic Action (minimum effective dose) (writhing behavior): 1 mg/kg; Muscle-Relaxing Action (ip) [1]: Ineffective (Strain Induced); Muscle-Relaxing Action (po) [1]: Ineffective (Strain Induced)

**Q.** With `NC(=O)Cc1ccc2ccn(C3CCN(CCc4ccc(F)cc4)CC3)c2c1` [(8), 1-[1-(4-fluorophenethyl)piperidin-4-yl]-6-amidemethylindole] as the compound, how does the “Analgesic Action” value (writhing behavior) read?
**A.** > 3 mg/kg

**Q.** What about the “Muscle-Relaxing Action (po)” value [1] of the same compound?
**A.** 3 mg/kg

**Q.** Which “Analgesic Action” value (writhing behavior) does the source give for `CCNC(=O)Cc1ccc2ccn(C3CCN(CCc4ccccc4F)CC3)c2c1` [(11), 1-[1-(2-fluorophenethyl)piperidin-4-yl]-6-(N-ethylamidemethyl)indole] here?
**A.** 3 mg/kg

**Q.** What about the “Muscle-Relaxing Action (po)” value [1] of the same compound?
**A.** 10 mg/kg

**Q.** Which results are given for `CCN1CCN(c2nc(-c3cccc(CCCO)c3)cc3ccccc23)CC1` [(22), 1-(4-ethylpiperazin-1-yl)-3-(3-hydroxypropylphenyl)isoquinoline hydrochloride]?
**A.** Analgesic Action (minimum effective dose) (writhing behavior): 3 mg/kg; Ki (5HT1A): 54.5 nM; Ki (5HT2): 17.4 nM

**Q.** With `CCN1CCN(c2nc(-c3ccc(OC)cc3)cc3ccccc23)CC1` [(15), 1-(4-ethylpiperazin-1-yl)-3-(4-methoxyphenyl)isoquinoline] as the compound, how does the “Analgesic Action” value (writhing behavior) read?
**A.** 3 mg/kg

**Q.** What about the Ki (5HT1A) of the same compound?
**A.** 59.9 nM

**Q.** And the Ki (5HT2)?
**A.** 11.1 nM
